≈ marks a conversion by molar mass, not a printed value.
Columns and labels:
Solubility at pH 6.8 = type: physicochemical; settings: pH 6.8, aqueous buffer, thermodynamic from solid; read-out: solubility
Summary of the method: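 Following the procedure of Zhou et al. (2007), compound solubility was determined at pH 6.8.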

[1] = tested on: PKB Ser473 phosphorylation in Rat1-myr-HA-p110 beta cells; experiment: Reverse protein array assay, PKB Ser473 phosphorylation in Rat1-myr-p110 beta cells; type: cell-based; settings: 0.5 h, pAkt Ser473, 30 minutes incubation, read-out: p-PKB IC50
Summary of the method: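 Rat1 cells expressing myristoylated HA-tagged p110 alpha, beta or delta were plated for at least 20 h, then exposed to 8-step serial compound dilutions (0.2% DMSO final) for 30 min at 37 °C. Lysates were spotted at four dilutions on protein microarrays, and relative fluorescence intensity of phospho-Ser473 PKB was calculated.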

PI3K alpha = target: T1, PI3K alpha (Homo sapiens, UniProt P42336); experiment: PI3K alpha kinase assay (Kinase-Glo luminescence); type: biochemical
T1 construct: p85(iSH2) fusion partner (see partner chain) (N); His tag (C); made in house; host or cells: baculovirus; Tn5 (Trichoplusia ni) or TiniPro insect cells
Summary of the method: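 Enzyme 10 nM PI3Kα EMV B1075; ATP 1 μM; PI 10 μg/mL; Tris-HCl pH 7.5 10 mM, MgCl2 3 mM, NaCl 50 mM, CHAPS 0.05%, DTT 1 mM; 60 min RT; Kinase-Glo luminescence; 4-parameter IC50 fit, 8 concentrations, single points.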

PI3K beta = target: T2, PI3K beta (Homo sapiens, UniProt P42338); experiment: PI3K beta kinase assay (Kinase-Glo luminescence); type: biochemical
T2 construct: for the full-length p110-b subunit are generated and fused by overlapping PCR; p85(iSH2) fusion partner (see partner chain) (N); His tag (C); made in house; host or cells: baculovirus; Tn5 (Trichoplusia ni) or TiniPro insect cells
Summary of the method: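 Residual ATP after a 60 min room-temperature reaction is quantified by Kinase-Glo luminescence. Enzyme: 25 nM BV-949 (p85 iSH2–linker–full-length p110β); substrates 1 μM ATP, 10 μg/mL PI; buffer Tris pH 7.5, MgCl2, NaCl, CHAPS, DTT. Eight concentrations per compound, four-parameter logistic IC50.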

T2 sequence (P42338 with tags, fused parts or gaps limits assumed): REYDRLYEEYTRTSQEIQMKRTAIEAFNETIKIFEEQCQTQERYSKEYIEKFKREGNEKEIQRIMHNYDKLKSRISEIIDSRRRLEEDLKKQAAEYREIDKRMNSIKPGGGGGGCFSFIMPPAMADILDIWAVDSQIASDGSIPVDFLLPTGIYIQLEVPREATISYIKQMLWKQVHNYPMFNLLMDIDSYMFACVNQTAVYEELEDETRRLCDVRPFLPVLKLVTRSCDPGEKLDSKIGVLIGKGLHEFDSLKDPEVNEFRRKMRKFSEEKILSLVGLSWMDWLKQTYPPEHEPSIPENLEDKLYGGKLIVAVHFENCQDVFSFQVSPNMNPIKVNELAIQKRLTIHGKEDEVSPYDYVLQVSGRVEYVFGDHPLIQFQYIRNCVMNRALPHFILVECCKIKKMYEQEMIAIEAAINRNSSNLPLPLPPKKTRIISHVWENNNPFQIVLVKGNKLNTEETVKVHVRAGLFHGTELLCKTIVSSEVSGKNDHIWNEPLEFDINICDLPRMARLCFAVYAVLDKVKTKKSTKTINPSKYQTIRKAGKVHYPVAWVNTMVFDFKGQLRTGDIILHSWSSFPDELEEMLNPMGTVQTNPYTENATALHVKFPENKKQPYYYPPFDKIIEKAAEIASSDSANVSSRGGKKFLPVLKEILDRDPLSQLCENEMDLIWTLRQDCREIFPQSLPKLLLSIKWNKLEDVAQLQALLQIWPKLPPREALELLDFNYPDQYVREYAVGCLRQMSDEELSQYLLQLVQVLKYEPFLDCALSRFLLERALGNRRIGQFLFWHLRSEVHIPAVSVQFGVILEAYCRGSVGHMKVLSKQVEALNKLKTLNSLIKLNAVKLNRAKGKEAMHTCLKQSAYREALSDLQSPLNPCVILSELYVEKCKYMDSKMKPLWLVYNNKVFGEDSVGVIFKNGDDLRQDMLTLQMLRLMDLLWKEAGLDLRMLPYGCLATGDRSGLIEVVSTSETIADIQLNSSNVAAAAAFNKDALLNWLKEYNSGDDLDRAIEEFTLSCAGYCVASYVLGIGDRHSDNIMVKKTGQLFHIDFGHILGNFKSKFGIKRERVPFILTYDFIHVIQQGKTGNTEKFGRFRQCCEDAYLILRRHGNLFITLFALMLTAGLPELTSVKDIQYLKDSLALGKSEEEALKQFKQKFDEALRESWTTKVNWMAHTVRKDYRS
T1 sequence (P42336 with tags, fused parts or gaps limits assumed): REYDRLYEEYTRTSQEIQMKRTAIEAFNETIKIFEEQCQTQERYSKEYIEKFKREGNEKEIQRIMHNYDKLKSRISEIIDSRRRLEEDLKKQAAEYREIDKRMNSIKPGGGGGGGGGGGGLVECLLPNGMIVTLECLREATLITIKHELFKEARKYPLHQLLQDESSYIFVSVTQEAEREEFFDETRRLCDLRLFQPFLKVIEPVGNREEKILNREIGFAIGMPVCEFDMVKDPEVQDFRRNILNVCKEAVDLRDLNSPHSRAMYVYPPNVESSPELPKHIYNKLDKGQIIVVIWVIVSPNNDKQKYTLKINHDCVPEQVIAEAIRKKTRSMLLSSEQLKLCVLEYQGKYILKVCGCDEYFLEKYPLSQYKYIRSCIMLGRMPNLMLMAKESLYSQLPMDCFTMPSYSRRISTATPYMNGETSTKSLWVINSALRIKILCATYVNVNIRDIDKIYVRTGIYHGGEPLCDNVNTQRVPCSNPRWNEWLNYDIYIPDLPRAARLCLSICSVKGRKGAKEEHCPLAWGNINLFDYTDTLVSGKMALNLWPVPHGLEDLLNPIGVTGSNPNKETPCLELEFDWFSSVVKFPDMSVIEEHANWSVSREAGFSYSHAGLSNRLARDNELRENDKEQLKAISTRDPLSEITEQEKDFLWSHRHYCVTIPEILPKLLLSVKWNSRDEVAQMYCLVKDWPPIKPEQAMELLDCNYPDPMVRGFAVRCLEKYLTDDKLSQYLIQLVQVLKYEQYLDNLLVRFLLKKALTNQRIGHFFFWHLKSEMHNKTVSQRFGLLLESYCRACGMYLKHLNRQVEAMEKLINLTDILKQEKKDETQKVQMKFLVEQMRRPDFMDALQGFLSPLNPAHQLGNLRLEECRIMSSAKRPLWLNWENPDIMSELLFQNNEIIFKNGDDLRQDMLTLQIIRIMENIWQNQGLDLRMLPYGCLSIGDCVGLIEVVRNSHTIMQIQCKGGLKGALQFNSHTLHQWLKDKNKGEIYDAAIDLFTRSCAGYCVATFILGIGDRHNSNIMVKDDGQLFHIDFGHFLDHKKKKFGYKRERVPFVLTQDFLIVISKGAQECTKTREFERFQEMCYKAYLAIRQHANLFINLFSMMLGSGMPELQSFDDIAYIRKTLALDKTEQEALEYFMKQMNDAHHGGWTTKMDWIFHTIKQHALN

Row | SMILES | solubility (Solubility at pH 6.8) [µg/mL] | IC50 [1] [nM] | IC50 (PI3K alpha) [nM] | IC50 (PI3K beta) [nM]
1 | Cc1nn(C)cc1-n1c(=O)n(C)c2cnc3ccc(-c4cncc(N5CCOCC5)c4)cc3c21 [Example 175.1, 1-(1,3-Dimethyl-1H-pyrazol-4-yl)-3-methyl-8-(5-morpholin-4-yl-pyridin-3-yl)-1,3-dihydro-imidazo[4,5-c]quinolin-2-one] | 35 (≈ 76.8 µM) | 37 | 66 | 180
2 | Cc1nn(C)cc1-n1c(=O)n(C)c2cnc3ccc(-c4cncc(N(C)C)c4)cc3c21 [Example 178, 8-(5-Dimethylamino-pyridin-3-yl)-1-(1,3-dimethyl-1H-pyrazol-4-yl)-3-methyl-1,3-dihydro-imidazo[4,5-c]quinolin-2-one] | 25 (≈ 60.5 µM) | 49 | 82 | 274
3 | Cc1nn(C)cc1-n1c(=O)n(C)c2cnc3ccc(-c4cncc(N5CCC5)c4)cc3c21 [Example 179, 8-(5-Azetidin-1-yl-pyridin-3-yl)-1-(1,3-dimethyl-1H-pyrazol-4-yl)-3-methyl-1,3-dihydro-imidazo[4,5-c]quinolin-2-one] | 28 (≈ 65.8 µM) | 21 | 39 | 130
4 | CNc1cncc(-c2ccc3ncc4c(c3c2)n(-c2cn(C(C)C)nc2C)c(=O)n4C)c1 [Example 180.2, 1-(1-Isopropyl-3-methyl-1H-pyrazol-4-yl)-3-methyl-8-(5-methylamino-pyridin-3-yl)-1,3-dihydro-imidazo[4,5-c]quinolin-2-one] | 10 (≈ 23.4 µM) | 32 | 22 | 42
5 | CCOc1cc(-c2ccc3ncc4c(c3c2)n(-c2cn(C)nc2C)c(=O)n4C)cnc1CC [Example 187, 1-(1,3-Dimethyl-1H-pyrazol-4-yl)-8-(5-ethoxy-6-ethyl-pyridin-3-yl)-3-methyl-1,3-dihydro-imidazo[4,5-c]quinolin-2-one] | 3 (≈ 6.78 µM) | 37 | 15 | 28
6 | CCc1ncc(-c2ccc3ncc4c(c3c2)n(-c2cn(C)nc2C)c(=O)n4C)cc1O [Example 188, 1-(1,3-Dimethyl-1H-pyrazol-4-yl)-8-(6-ethyl-5-hydroxy-pyridin-3-yl)-3-methyl-1,3-dihydro-imidazo[4,5-c]quinolin-2-one] | 44 (≈ 106 µM) | 22 | 9 | 30
7 | CCn1cc(-n2c(=O)n(C)c3cnc4ccc(-c5cnc(COC)c(OC(C)C)c5)cc4c32)c(C)n1 [Example 191.2, 1-(1-Ethyl-3-methyl-1H-pyrazol-4-yl)-8-(5-isopropoxy-6-methoxymethyl-pyridin-3-yl)-3-methyl-1,3-dihydro-imidazo[4,5-c]quinolin-2-one] | 243 (≈ 499 µM) | 58 | 13 | 178
8 | Cc1nn(C)cc1-n1c(=O)n(C)c2cnc3ccc(-c4cnc(CO)c(OC(CF)CF)c4)cc3c21 [Example 192, 1-(1,3-Dimethyl-1H-pyrazol-4-yl)-8-[5-(2-fluoro-1-fluoromethyl-ethoxy)-6-hydroxymethyl-pyridin-3-yl]-3-methyl-1,3-dihydro-imidazo[4,5-c]quinolin-2-one] | 27 (≈ 54.6 µM) | 38 | < 3 | 6
9 | CCOc1cc(-c2ccc3ncc4c(c3c2)n(-c2cn(C(C)C)nc2C)c(=O)n4C)cnc1COC [Example 197.2, 8-(5-Ethoxy-6-methoxymethyl-pyridin-3-yl)-1-(1-isopropyl-3-methyl-1H-pyrazol-4-yl)-3-methyl-1,3-dihydro-imidazo[4,5-c]quinolin-2-one] | 225 (≈ 462 µM) | 77 | 41 | 103
10 | COCc1ccc(-c2ccc3ncc4c(c3c2)n(-c2cn(C)nc2Cl)c(=O)n4C)cn1 [Example 203, 1-(3-Chloro-1-methyl-1H-pyrazol-4-yl)-8-(6-methoxymethyl-pyridin-3-yl)-3-methyl-1,3-dihydro-imidazo[4,5-c]quinolin-2-one] | 12 (≈ 27.6 µM) | 13 | 5 | 104
11 | CCNc1ncc(-c2ccc3ncc4c(c3c2)n(-c2cn(C)nc2C)c(=O)n4C)cc1COC [Example 206.1, 1-(1,3-Dimethyl-1H-pyrazol-4-yl)-8-(6-ethylamino-5-methoxymethyl-pyridin-3-yl)-3-methyl-1,3-dihydro-imidazo[4,5-c]quinolin-2-one] | 8 (≈ 17.5 µM) | 223 | 26 | 38
12 | CCNc1ncc(-c2ccc3ncc4c(c3c2)n(-c2c(C)nn(C)c2C)c(=O)n4C)cc1COC [Example 206.2, 8-(6-Ethylamino-5-methoxymethyl-pyridin-3-yl)-3-methyl-1-(1,3,5-trimethyl-1H-pyrazol-4-yl)-1,3-dihydro-imidazo[4,5-c]quinolin-2-one] | > 472 | 959 | 186 | 432
13 | CCc1ncc(-c2ccc3ncc4c(c3c2)n(-c2cn(C)nc2C)c(=O)n4C)cc1N [Example 208, 8-(5-Amino-6-ethyl-pyridin-3-yl)-1-(1,3-dimethyl-1H-pyrazol-4-yl)-3-methyl-1,3-dihydro-imidazo[4,5-c]quinolin-2-one] | 133 (≈ 322 µM) | 17 | 15 | 76
14 | Cn1cc(-n2c(=O)n(C)c3cnc4ccc(-c5cncc(C(C)(C)C#N)c5)cc4c32)c(Cl)n1 [Example 220.3, 2-{5-[1-(3-Chloro-1-methyl-1H-pyrazol-4-yl)-3-methyl-2-oxo-2,3-dihydro-1H-imidazo[4,5-c]quinolin-8-yl]-pyridin-3-yl}-2-methyl-propionitrile] | 16 (≈ 34.9 µM) | 6 | 5 | 7
15 | Cc1nn(C)cc1-n1c(=O)n(C)c2cnc3ccc(-c4cncc(C5(C#N)CCC5)c4)cc3c21 [Example 221.1, 1-{5-[1-(1,3-Dimethyl-1H-pyrazol-4-yl)-3-methyl-2-oxo-2,3-dihydro-1H-imidazo[4,5-c]quinolin-8-yl]-pyridin-3-yl}-cyclobutanecarbonitrile] | 21 (≈ 46.7 µM) | 20 | 14 | 23
16 | CCN1C(=O)OCc2ncc(-c3ccc4ncc5c(c4c3)n(-c3cn(C)nc3C)c(=O)n5C)cc21 [Example 237, 1-(1,3-Dimethyl-1H-pyrazol-4-yl)-8-(1-ethyl-2-oxo-1,4-dihydro-2H-pyrido[3,2-d][1,3]oxazin-7-yl)-3-methyl-1,3-dihydro-imidazo[4,5-c]quinolin-2-one] | 14 (≈ 29.8 µM) | 55 | 8 | 7
17 | CCn1c(=O)n(-c2cn(C)nc2C)c2c3cc(-c4cncc(N)c4)ccc3ncc21 [Example 245, 8-(5-Amino-pyridin-3-yl)-1-(1,3-dimethyl-1H-pyrazol-4-yl)-3-ethyl-1,3-dihydro-imidazo[4,5-c]quinolin-2-one] | 129 (≈ 323 µM) | 386 | 22 | 162

Source: US20140005163A1 (NOVARTIS AG, priority 2010, published 2014)
